The values below come from patent US20210121505A1, “COMPOSITIONS AND METHODS FOR TREATING INFLAMMATORY BOWEL DISEASES” (Seres Therapeutics, Inc., priority 2018, published 2021).

The test system of assay [1] is LPS-stimulated peripheral blood mononuclear cells (PBMCs). Kind of assay: TNF-α and IL-10 secretion assay, LPS-stimulated PBMCs. Type of assay: cell-based, Human. Conditions: LPS-activated PBMCs; bile acid 12.5, 25, 50 μM; LPS 1 ng/mL; FIGS. 4A and 4B. The protocol: To better understand the possible relationship between the increased level of certain secondary bile acids and ulcerative colitis remission, monocytes and PBMCs were activated with LPS in the presence of varying concentrations of different primary and secondary bile acids in their conjugated and unconjugated forms. The amount of TNF-α and IL-10 produced by the activated cells was measured as described below.
Human buffy coat was obtained from Bioreclamation and shipped overnight on ice. Buffy coat was diluted 1:1 with PBS and layered on top of a Ficoll-Paque (GE Healthcare Cat #17-1440-03) in 50 mL falcon tubes. Samples were spun at 500×g for 20 min at room temperature with no brake. PBMCs were aspirated at the […] gradient layer and washed 3 times with PBS. Cells were counted with a hemocytometer to determine cell viability and concentration. Cells were plated onto 96 well plate and incubated at 37 C, 5% CO2 for 1 hour. Following this, bile acids were added at a final concentration of 12.5 μM, 25 μM and 50 μM for one hour prior to addition of LPS (1 ng/mL). After incubation of 16-20 hours, the cell culture media were collected for cytokine analysis. Cytokines were assayed using the Milliplex Human Cytokine kit (Luminex; Millipore), assaying IL-10 and TNF-α. Monocytes were isolated from PBMCs using the Miltenyi Biotec Pan Monocyte Isolation Kit (Cat No: 130-096-537) as per manufacturer's instructions and assayed as described above.

Assay [2] has as its system intestinal epithelial cells (HT29). Kind of assay: IL-8 secretion assay, TNF-α-stimulated intestinal epithelial cells. Type of assay: cell-based. Conditions: bile acid 62.5, 125, 250 μM, 1.25 ng/mL TNF-α, relative to no bile acid control, FIG. 6. The protocol:
Since IBD primarily affects the intestinal tissues, whether the anti-inflammatory effects observed in monocytes and PBMCs were also true in intestinal epithelial cells (HT29) was assessed as described below.
HT29 cells, cultured in McCoys Medium supplemented with 10% FBS, GlutaMAX and Pen/Strep were plated at a density of 50 k cells/well in 96-well format and allowed to grow for 5 days until fully confluent. Culture medium was changed every two days. On day 5, cells were pre-treated for 1 hour with 250 μM, 125 μM or 62.5 μM bile acid compounds before exposure to 1.25 ng/mL TNF-α. Cells were incubated overnight (16 h) and culture supernatants were collected for IL-8 protein quantification by ELISA. IL-8 levels of test samples were normalized to inflammatory controls, DMSO pre-treated samples (i.e., no bile acids) that were exposed to the 1.25 ng/mL TNF-α.

For the compound `C[C@H](CCC(=O)NCCS(=O)(=O)O)[C@H]1CC[C@H]2[C@@H]3CC[C@@H]4C[C@H](O)CC[C@]4(C)[C@H]3C[C@H](O)[C@]12C` [tDCA, tauro-deoxycholic acid], the “anti-inflammatory effects (higher IL-10, lower TNF-α)” value in assay [1] was “greatest anti-inflammatory effects”. Further, the IL-8 production result in assay [2] is on record as “decreased IL-8 production in a dose-dependent manner”.

On to `CC(CCC(=O)NCC(=O)O)C1CCC2C3CCC4CC(O)CCC4(C)C3CC(O)C12C` (stereo not drawn) [gDCA, glyco-deoxycholic acid], for which the “anti-inflammatory effects (higher IL-10, lower TNF-α)” value in assay [1] is reported as “greatest anti-inflammatory effects”. Also, in assay [2], the IL-8 production entry is given as “decreased IL-8 production in a dose-dependent manner”.

On to `C[C@H](CCC(=O)NCCS(=O)(=O)O)[C@H]1CC[C@H]2[C@@H]3CC[C@@H]4C[C@H](OS(=O)(=O)O)CC[C@]4(C)[C@H]3CC[C@]12C` [tLCA, tauro-sulfo-lithocholic acid], for which the “anti-inflammatory effects (higher IL-10, lower TNF-α)” value in assay [1] is reported as “greatest anti-inflammatory effects”. For the same compound, the IL-8 production entry in assay [2] is reported as “decreased IL-8 production in a dose-dependent manner”.
